Source: paper PMC9220351, “Evaluation of a Conformationally Constrained Indole Carboxamide as a Potential Efflux Pump Inhibitor in Pseudomonas aeruginosa” (Antibiotics, 2022)
pIC50: −log10 of the molar value.

Columns and labels:
[1] = tested on: P. aeruginosa K2415 (mexXY-oprM overexpressed); test: MIC / potentiation assay, strain K2415; format: cell-based, Pseudomonas aeruginosa; conditions: Pseudomonas aeruginosa, read-out: MICs K2415 (↑mexXY-oprM)
Excerpt: (§1) P. aeruginosa ATCC 27853 was obtained from the American Type Culture Collection (ATCC; Manassas, VA, USA). P. aeruginosa multidrug-resistant isolates were obtained from the CDC and FDA Antibiotic Resistance Isolate Bank (Atlanta, GA, USA). P. aeruginosa DA7232 (gyrA-T83I, parC-S80L) was a kind gift from Prof. Dan I. Andersson, Uppsala University, Uppsala, Sweden, and has been characterized elsewhere. P. aeruginosa strains K767 (WT), K1455 (mexAB-oprM overexpressed), K2415 (mexXY-oprM overexpressed), and K3698 (oprM∆) were obtained from Prof. Keith Poole, Queen’s University, Kingston, Ontario, Canada and have been characterized elsewhere. Bacterial cells were grown in cation-adjusted Mueller Hinton (CAMH) media, brain heart infusion broth (BHI), or tryptic soy agar (TSA) plates were all obtained from Becton, Dickinson, and Company (BD; Franklin Lakes, NJ, USA). Aztreonam, ceftazidime, moxifloxacin, levofloxacin, minocycline, tigecycline, chloramphenicol, nitrocefin, and imipenem were purchased from TOKU-E (Bellingham, WA, USA). Azithromycin was purchased from Tokyo Chemical Industry (Portland, OR, USA). Cotrimoxazole was purchased from Toronto Research Chemicals (Toronto, ON, Canada). Doxycycline and polymyxin B were purchased from Sigma-Aldrich (St. Louis, MO, USA). Ethidium bromide (EtBr) and glucose were purchased from VWR (Radnor, PA, USA). MC-04,124 and TXA01182 were synthesized at TAXIS Pharmaceuticals. Carbonyl cyanide 3-chlorophenylhydrazone (CCCP) was purchased from Enzo Life Sciences (Farmingdale, NY, USA). DiOC2 (3) and propidium iodide were obtained from Thermo Fisher Scientific (Waltham, MA, USA).
(§2) MIC assays were performed as described previously.

[2] = tested on: P. aeruginosa K3698 (∆oprM); test: MIC / potentiation assay, strain K3698; format: cell-based, Pseudomonas aeruginosa; conditions: Pseudomonas aeruginosa, read-out: MICs K3698 (∆oprM)
Excerpt: as §1, with “Aztreonam, ceftazidime, moxifloxacin, levofloxacin, minocycline, tigecycline, chloramphenicol, nitrocefin, and imipenem were purchased from TOKU-E (Bellingham, WA, USA).” left out, “Cotrimoxazole was purchased from Toronto Research Chemicals (Toronto, ON, Canada). Doxycycline and polymyxin B were purchased from Sigma-Aldrich (St. Louis, MO, USA).” left out
as §2

[3] = tested on: P. aeruginosa ATCC 27853 efflux of EtBr; test: Ethidium bromide (EtBr) efflux inhibition assay; format: cell-based, Pseudomonas aeruginosa; conditions: fluorescence, after glucose activation
Experimental: The ability of TXA09155 to inhibit efflux in P. aeruginosa was studied using two quantitative assays to establish efflux inhibition as the MOA. In the first assay, the efflux of ethidium bromide (EtBr) by P. aeruginosa cells is studied in the presence of different concentrations of TXA09155. Wild-type P. aeruginosa ATCC 27853 cells were incubated with EtBr to allow for the intracellular accumulation and were treated with CCCP to inhibit active efflux. […] Following activation by the addition of glucose, the efflux of EtBr can be followed in real time as a decrease in fluorescence based on the concentration of TXA09155.
Efflux of EtBr from P. aeruginosa in the presence of TXA09155 was carried out as described previously.

P. aeruginosa DA7232 = test: Levofloxacin accumulation assay; format: cell-based, Pseudomonas aeruginosa; conditions: levofloxacin 64 μg/mL; compound 1/2, 1/4th, 1/8th MIC
Experimental: Similar assays have been described elsewhere with the same purpose.
The treated bacterial culture samples were incubated on ice for 15 min, centrifuged, washed with 1X PBS (pH 7.4), and then resuspended in 1 mL of glycine-HCl buffer (pH 3.0) overnight, followed by centrifugation. The fluorescence of 100 μL of supernatant was read at 490 nm following a 355 nm excitation in a SpectraMax iD5 spectrophotometer (Molecular Devices, San Jose, CA, USA).

P. aeruginosa ATCC 27853 = test: Time-kill studies; format: cell-based, Pseudomonas aeruginosa; conditions: highest concentration tested
Experimental: Time-kill studies were carried out as described previously with the following changes.

CYP2C19 = CYP2C19 (Homo sapiens, UniProt P33261); test: CYP inhibition; format: in vitro ADME; conditions: read-out: CYP Inhibition IC50, CYP 2C19
Sequence of CYP2C19 (P33261 whole entry): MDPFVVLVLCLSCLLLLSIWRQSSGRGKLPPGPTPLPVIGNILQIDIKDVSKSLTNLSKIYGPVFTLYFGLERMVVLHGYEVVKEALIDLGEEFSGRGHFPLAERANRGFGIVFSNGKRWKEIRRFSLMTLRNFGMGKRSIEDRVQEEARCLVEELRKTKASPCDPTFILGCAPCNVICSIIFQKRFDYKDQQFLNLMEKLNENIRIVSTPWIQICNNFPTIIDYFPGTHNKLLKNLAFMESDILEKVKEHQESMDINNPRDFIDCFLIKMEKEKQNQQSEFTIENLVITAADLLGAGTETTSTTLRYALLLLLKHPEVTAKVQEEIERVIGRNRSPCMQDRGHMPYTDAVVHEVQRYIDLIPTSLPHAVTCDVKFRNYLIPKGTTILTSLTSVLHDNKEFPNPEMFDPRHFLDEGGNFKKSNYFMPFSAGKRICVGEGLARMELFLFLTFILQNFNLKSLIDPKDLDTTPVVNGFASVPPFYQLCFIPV

CYP2C9 = CYP2C9 (Homo sapiens, UniProt P11712); test: CYP inhibition; format: in vitro ADME; conditions: read-out: CYP Inhibition IC50, CYP 2C9
Sequence of CYP2C9 (P11712 whole entry): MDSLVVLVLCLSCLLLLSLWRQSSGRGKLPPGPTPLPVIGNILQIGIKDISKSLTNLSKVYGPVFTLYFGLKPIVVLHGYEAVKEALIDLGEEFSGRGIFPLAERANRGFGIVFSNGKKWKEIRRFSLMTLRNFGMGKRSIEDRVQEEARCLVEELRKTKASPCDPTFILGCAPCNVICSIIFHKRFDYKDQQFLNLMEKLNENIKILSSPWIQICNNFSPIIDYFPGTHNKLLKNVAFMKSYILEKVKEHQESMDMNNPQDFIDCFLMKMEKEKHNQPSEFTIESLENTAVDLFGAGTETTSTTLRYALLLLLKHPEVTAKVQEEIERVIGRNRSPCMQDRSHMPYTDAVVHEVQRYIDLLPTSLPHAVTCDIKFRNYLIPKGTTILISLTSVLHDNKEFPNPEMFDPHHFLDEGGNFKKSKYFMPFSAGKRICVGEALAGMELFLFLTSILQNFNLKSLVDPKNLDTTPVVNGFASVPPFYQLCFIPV

CYP2D6 = CYP2D6 (Homo sapiens, UniProt P10635); test: CYP inhibition; format: in vitro ADME; conditions: read-out: CYP Inhibition IC50, CYP 2D6
Sequence of CYP2D6 (P10635 whole entry): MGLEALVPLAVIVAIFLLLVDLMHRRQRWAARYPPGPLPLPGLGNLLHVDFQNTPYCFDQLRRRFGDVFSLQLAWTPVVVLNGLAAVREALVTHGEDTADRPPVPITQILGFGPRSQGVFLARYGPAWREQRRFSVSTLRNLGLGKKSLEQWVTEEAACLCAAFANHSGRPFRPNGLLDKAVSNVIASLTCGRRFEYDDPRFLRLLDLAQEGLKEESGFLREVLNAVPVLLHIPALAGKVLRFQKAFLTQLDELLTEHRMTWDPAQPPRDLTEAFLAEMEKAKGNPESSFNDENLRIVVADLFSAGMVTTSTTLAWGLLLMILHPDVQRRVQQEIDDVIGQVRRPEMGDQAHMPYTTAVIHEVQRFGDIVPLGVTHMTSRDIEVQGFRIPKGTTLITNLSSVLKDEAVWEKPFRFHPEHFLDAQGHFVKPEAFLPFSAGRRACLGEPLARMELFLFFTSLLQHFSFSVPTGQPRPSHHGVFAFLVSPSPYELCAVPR

Compound | MIC [1] | MIC [2] | inhibition of EtBr efflux [3] | accumulation of levofloxacin inside P. aeruginosa (P. aeruginosa DA7232) | effect on growth, compound alone (P. aeruginosa ATCC 27853) | pIC50 (CYP2C19) | pIC50 (CYP2C9) | pIC50 (CYP2D6)
C[C@H]1COc2c(N3CCN(C)CC3)c(F)cc3c(=O)c(C(=O)O)cn1c23 [Levofloxacin] | 4 µg/mL | 0.031 µg/mL |  |  |  |  |  | 
Cl.NC[C@@H]1CN[C@H](CNC(=O)c2cc3ccc(-c4ccc(F)cc4)cc3[nH]2)C1 [TXA09155, N-(((2S,4R)-4-(aminomethyl)pyrrolidine-2-yl)methyl)-6-(4-fluorophenyl)-1H-indole-2-carboxamide hydrochloride salt] |  |  | concentration-dependent inhibition | concentration-dependent manner | did not affect the growth | < 4.00 | < 4.00 | 4.17
